This is an account of results in US3974140A, “Ureidoacetamido-penicillins” (Bayer Aktiengesellschaft, priority 1970, dated 1976).

The subject of one data set is E. coli 14. Briefly: MIC, liquid medium test tube series dilution test. The following applies: E. coli 14, 24 hours, 37°C. It is filed as cell-based. The method in brief: (§1)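 Liquid-medium tube serial dilution in complete nutrient medium, read after 24 h incubation at 37°C. MIC is the lowest concentration giving a non-turbid tube, expressed in units/ml.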
A further data set concerns E. coli 183/58. Briefly: MIC, liquid medium test tube series dilution test. To be noted: E. coli 183/58, 24 hours, 37°C. In kind it is cell-based. The method in brief:
as §1

The next data set concerns E. coli A 261. The experiment in a line: MIC, liquid medium test tube series dilution test. In kind it is cell-based. To be noted: E. coli A 261, 24 hours, 37°C. The method in brief:
as §1

Another data set has as its system E. coli C 165. The experiment in a line: MIC, liquid medium test tube series dilution test. In kind it is cell-based. The following applies: E. coli C 165, 24 hours, 37°C. The method in brief:
as §1

A further data set deals with Klebsiella 63. The experiment in a line: MIC, liquid medium test tube series dilution test. In kind it is cell-based. To be noted: Klebsiella 63, 24 hours, 37°C. The method in brief: as §1
The test system of data set [1] is Streptoc. faec. ATCC 9790. The experiment in a line: MIC, liquid medium test tube series dilution test. It is filed as cell-based. To be noted: Strep. faec. (Enterococcus) ATCC 9790, 24 hours, 37°C. The method in brief:
as §1

A further data set deals with Proteus vulg. 1017. Briefly: MIC, liquid medium test tube series dilution test. It is filed as cell-based, Proteus vulgaris. To be noted: Proteus vulg. 1017, 24 hours, 37°C. The method in brief: as §1
The next data set has as its system Proteus vulg. 3400. Briefly: MIC, liquid medium test tube series dilution test. In kind it is cell-based, Proteus vulgaris. To be noted: Proteus vulg. 3400, 24 hours, 37°C. The method in brief:
as §1

The subject of the next data set is Psdm. aerug. Bonn. The experiment in a line: MIC, liquid medium test tube series dilution test. It is filed as cell-based, Pseudomonas aerug. To be noted: 24 hours, 37°C. The method in brief: as §1
A further data set relates to Psdm. aerug. Walter. Briefly: MIC, liquid medium test tube series dilution test. To be noted: 24 hours, 37°C. In kind it is cell-based, Pseudomonas aerug. The method in brief: as §1
The subject of data set [2] is Staph. aureus 133. The experiment in a line: MIC, liquid medium test tube series dilution test. It is filed as cell-based, Staphylococcus aureus. The following applies: Staph. aureus 133, 24 hours, 37°C. The method in brief:
as §1

In another data set the test system is Staph. aureus 1777 E. The experiment in a line: MIC, liquid medium test tube series dilution test. To be noted: 24 hours, 37°C. In kind it is cell-based, Staphylococcus aureus. The method in brief:
as §1

The subject of data set [3] is Staph. aureus 133. Briefly: Surviving mice after intraperitoneal infection and subcutaneous therapy. It is filed as in vivo, white mice, CF1 strain. To be noted: 2 × 200 units/mouse s.c. Here is the method:
The experiments on animals (see Table 3) were carried out with white mice of the CF1 strain. The infection took place intraperitoneally with the particular bacterium indicated.

Data set [4] in a line: Acute toxicity (LD50), intravenous injection into the vein of the tail. The following applies: for LD50: mouse, in vivo, iv. It is filed as in vivo. The text has this:
Acute toxicity (LD50) in white mice after
intravenous injection into the vein of the […]

A further data set has as its system Klebsiella K 10. Briefly: MIC, liquid medium test tube series dilution test. It is filed as cell-based. To be noted: Klebsiella K 10, 24 hours, 37°C. The method in brief:
as §1

Data set [5] can be described thus: Serum level after subcutaneous administration, measured from microbiological activity against Proteus vulgaris 1017. It is filed as in vivo, white mice. The text has this:
Serum level after subcutaneous ("s.c.") administration to white mice, in units/ml of serum, measured from the microbiological activity against Proteus vulgaris 1017 (ampicillin-resistant).

[6] abbreviates: i.v. into tail vein, white mice.

`CN(C(=O)N[C@@H](C(=O)N[C@@H]1C(=O)N2[C@@H]1SC(C)(C)[C@@H]2C(=O)O)c1ccccc1)C(=O)C1CC=CCC1` (single isomer, unassigned) [Example 65, Sodium D(-)-α-(3-(1,2,5,6)-tetrahydrobenzoyl-3-methyl-ureido)benzylpenicillin]: the MIC is given as under 0.78 units/ml against E. coli 14; 1.56 units/ml with E. coli 183/58; 400 units/ml with E. coli A 261; 3.12 units/ml against E. coli C 165; 12.5 units/ml against Klebsiella 63; 50 units/ml in data set [1]. Moreover, the MIC is recorded as 3.12 units/ml against Proteus vulg. 1017; 6.25 units/ml with Proteus vulg. 3400; 12.5 units/ml in the data set on Psdm. aerug. Bonn; 12.5 units/ml in the data set on Psdm. aerug. Walter; under 0.78 units/ml in the data set on Staph. aureus 133 [2]; 50 units/ml in the data set on Staph. aureus 1777 E. The “Number of surviving mice” value with Staph. aureus 133 [3] (1 day) is 90%; in the data set on Staph. aureus 133 [3] (2 days), 80%; in the data set with Staph. aureus 133 [3] (3 days), 70%; in the data set with Staph. aureus 133 [3] (5 days), 70%.
For `Cc1onc(-c2c(Cl)cccc2Cl)c1C(=O)N[C@@H]1C(=O)N2[C@@H]1SC(C)(C)[C@@H]2C(=O)O` [Dicycloxacillin, reference compound], the “Acute toxicity (LD50)” value in data set [4] (setting [6]) worked out at 900 mg/kg.
Consider `CN(C(=O)CCCl)C(=O)N[C@@H](C(=O)N[C@@H]1C(=O)N2[C@@H]1SC(C)(C)[C@@H]2C(=O)O)c1ccccc1` [Example 64, Sodium D(-)-α-(3-β -chloropropionyl-3-methyl-ureido)-benzylpenicillin], for which the MIC against E. coli 14 is 3.12 units/ml; in the data set with E. coli 183/58, 25 units/ml; against E. coli A 261, over 400 units/ml; against E. coli C 165 it was 25 units/ml; in the data set with Klebsiella 63, 100 units/ml; with Klebsiella K 10, 100 units/ml. Further, the MIC was 100 units/ml in data set [1]; 25 units/ml in the data set with Proteus vulg. 1017; 100 units/ml against Proteus vulg. 3400; 25 units/ml against Psdm. aerug. Bonn; 50 units/ml against Psdm. aerug. Walter; 1.56 units/ml in the data set with Staph. aureus 133 [2]. In the data set with Staph. aureus 1777 E, this molecule showed an MIC of 50 units/ml. In addition, the Serum level was 50 units/ml of serum in data set [5] (50.000 units s.c., 10 mins.); 10 units/ml of serum in [5] (50.000 units s.c., 20 mins.); 42 units/ml of serum in [5] (150.000 units s.c., 15 mins.); 26 units/ml of serum in data set [5] (150.000 units s.c., 30 mins.); < 10 units/ml of serum in data set [5] (150.000 units s.c., 60 mins.).
Regarding `CN(C(=O)N[C@@H](C(=O)N[C@@H]1C(=O)N2[C@@H]1SC(C)(C)[C@@H]2C(=O)O)c1ccccc1)C(=O)c1cccs1` [Example 75, Sodium D(-)-α-(3-thenoyl-(2)-3-methyl-ureido)-benzylpenicillin], the figures for the MIC in the data set on E. coli 14 and with Staph. aureus 133 [2] were under 0.8 units/ml and 0.8 units/ml, respectively. Besides, the LD50 in data set [4] came to 1500 mg/kg.
As to `C=CCN(C(C)=O)C(=O)N[C@@H](C(=O)N[C@@H]1C(=O)N2[C@@H]1SC(C)(C)[C@@H]2C(=O)O)c1ccccc1` [Example 86, Sodium D(-)-α-(3-acetyl-3-allyl-ureido)-benzylpenicillin], the MIC against E. coli 14 is 12.5 units/ml; with E. coli 183/58, 50 units/ml; against E. coli A 261, over 400 units/ml; with E. coli C 165, 25 units/ml; in the data set on Klebsiella 63, 50 units/ml; against Klebsiella K 10, 100 units/ml. Further, the MIC in data set [1] is recorded as 100 units/ml; against Proteus vulg. 1017, 50 units/ml; in the data set with Proteus vulg. 3400, 50 units/ml; in the data set with Psdm. aerug. Bonn it was 25 units/ml; in the data set with Psdm. aerug. Walter it was 50 units/ml; against Staph. aureus 133 [2], under 0.78 units/ml. For the same molecule, in [4] (setting [6]), the LD50 was over 3000 mg/kg.
`CN(C)C(=O)N(C)C(=O)N[C@@H](C(=O)N[C@@H]1C(=O)N2[C@@H]1SC(C)(C)[C@@H]2C(=O)O)c1ccccc1` [Example 94, Sodium D(-)-α-(3-dimethylaminocarbonyl-3-methyl-ureido)benzylpenicillin]: the MIC with E. coli 14 is 12.5 units/ml; with E. coli 183/58, 100 units/ml; against E. coli A 261, over 400 units/ml; against E. coli C 165, 50 units/ml; in the data set on Klebsiella 63 it was 200 units/ml; against Klebsiella K 10, 200 units/ml. For the same molecule, the MIC in [1] is recorded as 200 units/ml; in the data set with Proteus vulg. 1017, 100 units/ml; with Proteus vulg. 3400, 50 units/ml; against Psdm. aerug. Bonn, 100 units/ml; with Psdm. aerug. Walter, 100 units/ml; with Staph. aureus 133 [2] it was 3.12 units/ml. In addition, in [4], the LD50 came out at 4000 mg/kg.
In the case of `CCN(C(=O)N[C@@H](C(=O)N[C@@H]1C(=O)N2[C@@H]1SC(C)(C)[C@@H]2C(=O)O)c1ccccc1)C(=O)c1ccccc1Cl` [Example 138, Sodium D(-)-α-(3-o-chlorobenzoyl-3-ethyl-ureido)-benzylpenicillin], the MIC was found to be 6.25 units/ml in the data set with E. coli 14; 12.5 units/ml against E. coli 183/58; 200 units/ml in the data set with E. coli A 261; 25 units/ml in the data set with E. coli C 165; 50 units/ml with Klebsiella 63; 50 units/ml with Klebsiella K 10. The MIC in data set [1] was 50 units/ml; in the data set with Proteus vulg. 1017, 25 units/ml; against Proteus vulg. 3400 it was 100 units/ml; in the data set on Psdm. aerug. Bonn it was 25 units/ml; in the data set with Psdm. aerug. Walter, 100 units/ml; against Staph. aureus 133 [2], under 0.8 units/ml. This molecule showed an MIC with Staph. aureus 1777 E of 12.5 units/ml.
Regarding `CC1(C)S[C@@H]2[C@H](NC(=O)[C@H](NC(=O)N3CCNC3=O)c3ccccc3)C(=O)N2[C@H]1C(=O)O` [Example 144 A, D(-)-α-(Imidazolidin-2-on-1-yl-carbonylamino)-benzyl-penicillin], the MIC amounted to 1.56 units/ml with E. coli 14 (listed as 144); 50 units/ml against E. coli 183/58 (listed as 144); 400 units/ml in the data set with E. coli A 261 (listed as 144); 6.25 units/ml in the data set on E. coli C 165 (listed as 144); 50 units/ml with Klebsiella 63 (listed as 144); 50 units/ml with Klebsiella K 10. Moreover, the MIC in [1] (listed as 144) is reported as 25 units/ml; against Proteus vulg. 1017 (listed as 144), 12 units/ml; against Proteus vulg. 3400 (listed as 144), 25 units/ml; against Psdm. aerug. Bonn (listed as 144), 6.25 units/ml; in the data set on Psdm. aerug. Walter (listed as 144) it was 12.5 units/ml; in the data set on Staph. aureus 133 [2] (listed as 144), under 0.8 units/ml. In the data set with Staph. aureus 1777 E (listed as 144), this molecule registered an MIC of 200 units/ml.
Regarding `CC1(C)S[C@@H]2[C@H](NC(=O)[C@H](NC(=O)N3CCNC3=S)c3ccccc3)C(=O)N2[C@H]1C(=O)O` [Example 147 A], the MIC was 12.5 units/ml in the data set on E. coli 14; 100 units/ml against E. coli 183/58; over 400 units/ml in the data set on E. coli A 261; 50 units/ml in the data set on E. coli C 165; 100 units/ml against Klebsiella 63; 200 units/ml in the data set with Klebsiella K 10. Also, the MIC in data set [1] stood at 50 units/ml; in the data set on Proteus vulg. 1017 it was 50 units/ml; in the data set with Proteus vulg. 3400, 50 units/ml; in the data set with Proteus vulg. 3400 (listed as 147 A), 200 units/ml; in the data set on Psdm. aerug. Bonn, 25 units/ml; in the data set with Psdm. aerug. Walter, 200 units/ml. In addition, the MIC was under 0.8 units/ml against Staph. aureus 133 [2] and 100 units/ml against Staph. aureus 1777 E.
